What was measured:
[1] = molecular target: T1, H. volcanii malate synthase isoform H (hvMSH) (Haloferax volcanii, UniProt D4GTL2); assay: X-ray crystal structure, […] Å; assay type: binding; details: ~0.15 M acetyl-CoA, ~70 mM pyruvate, 50 mM MgCl2 soak, active site
T1 construct: gene aceB; full-length native enzyme, purified from H. volcanii grown on acetate, no tag; trimer/hexamer equilibrium
T1 sequence (D4GTL2 1-433): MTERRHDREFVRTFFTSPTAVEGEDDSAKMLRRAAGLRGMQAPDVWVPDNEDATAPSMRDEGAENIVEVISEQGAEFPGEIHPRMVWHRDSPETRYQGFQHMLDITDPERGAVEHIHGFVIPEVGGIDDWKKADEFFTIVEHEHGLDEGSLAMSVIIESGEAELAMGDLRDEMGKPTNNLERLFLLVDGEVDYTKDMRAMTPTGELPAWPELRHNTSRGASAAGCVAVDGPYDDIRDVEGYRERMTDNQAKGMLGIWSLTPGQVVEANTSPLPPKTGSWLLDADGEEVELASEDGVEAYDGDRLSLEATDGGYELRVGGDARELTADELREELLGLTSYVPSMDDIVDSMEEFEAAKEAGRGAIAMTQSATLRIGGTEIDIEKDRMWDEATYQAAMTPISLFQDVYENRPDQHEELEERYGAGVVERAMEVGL

[2] = molecular target: T1, H. volcanii malate synthase isoform H (hvMSH); assay: X-ray crystal structure, […] Å; assay type: binding; details: ~0.1 M glyoxylate and ~0.1 M MgCl2 soak; active site, on Mg2+; second, weak glyoxylate at acetyl-CoA thioester position; low-occupancy complex (3 mM glyoxylate) is 3PUG

CC(=O)SCCNC(=O)CCNC(=O)[C@H](O)C(C)(C)COP(=O)(O)OP(=O)(O)OC[C@H]1O[C@@H](n2cnc3c(N)ncnc32)[C@H](O)[C@@H]1OP(=O)(O)O [acetyl-coenzyme A]
X-ray crystal structure, 1.95 Å ([1]; ternary complex with pyruvate): one molecule of pyruvate, one molecule of acetyl-CoA, one magnesium ion

O=CC(=O)O [glyoxylate]
X-ray crystal structure, 2.51 Å [2]: One glyoxylate molecule is bound to the Mg2+ at the active site

CC(=O)C(=O)O [pyruvate]
X-ray crystal structure, 1.95 Å ([1]; ternary complex with acetyl-CoA, glyoxylate position): one molecule of pyruvate, one molecule of acetyl-CoA, one magnesium ion
